Measured values published in patent publication US10576102B2, “KOC1-derived peptide and vaccine including same” (ONCOTHERAPY SCIENCE, INC., priority 2014, dated 2020).
“Also recorded” adds a separate entry of the source.

Assays:
Type in all cases: cell-based, human
peptide-pulsed C1R-A03 = assay: In vitro CTL induction, IFN-gamma ELISPOT assay (HLA-A*0301); conditions: CTLs induced with peptide-pulsed DCs from HLA-A*0301-positive volunteers; day 21; vs peptide-pulsed C1R-A03, compared with unpulsed control; listed as KOC1-A03-10-414
Method: C1R (C1R-A03) that stably expresses HLA-A*0301 was used as a stimulator cell. A cDNA encoding the open-reading frame of HLA-A*0301 was amplified by PCR and cloned into an expression vector. C1R cells were transfected with the expression vector, and then selected using G418 (Invitrogen) for two weeks. The G418-selected cells were seeded into wells containing G418-added culture medium in a 96-well plate, and further cultured for 30 days. The exogenous HLA-A*0301 expression in C1R cells was verified by flow cytometric analysis.
Monocyte-derived dendritic cells (DCs) were used as the antigen-presenting cell to induce a cytotoxic T lymphocyte (CTL) response against peptides presented on human leukocyte antigens (HLAs). As described in the other sections, DCs were generated in vitro (Nakahara S et al., Cancer Res 2003, 63(14): 4112-8). Specifically, peripheral-blood mononuclear cells isolated from healthy volunteers (HLA-A*0301-positive) with the Ficoll-Paque plus solution (Pharmacia) were separated by attaching to plastic tissue culture dishes (Becton Dickinson) and concentrated as a monocyte fraction. The monocyte-concentrated population was cultured in the presence of 1000 IU/ml granulocyte macrophage colony-stimulating factor (R&D System) and 1000 IU/ml interleukin(IL)-4 (R&D System) in an AIM-V medium (Invitrogen) containing 2% heat-inactivated autologous serum (AS). After seven days of culturing, the cytokine-induced DCs were pulsed with 20 micro-g/ml each of the synthesized peptides in an AIM-V medium at 37 degrees C. for three hours in the presence of 3 micro-g/ml beta 2-microglobulin. The generated cells appeared to express on their cell surface DC-associated molecules such as CD80, CD83, CD86 and HLA class II (data not shown). Next, these peptide-pulsed DCs were inactivated by X-ray irradiation (20 Gy), and mixed in a 1:20 ratio with autologous CD8^+ T cells obtained by positive selection using the CD8 Positive Isolation Kit (Dynal). These culture products were seeded in a 48-well plate (Corning). Each well was made to contain 1.5×10^4 peptide-pulsed DCs, 3×10^5 CD8^+ T cells and 10 ng/ml IL-7 (R&D System) in 0.5 ml of the AIM-V/2% AS medium. Three days later, these culture products were added with a final concentration of 20 IU/ml IL-2 (CHIRON). On day 7 and day 14, T cells were further stimulated with peptide-pulsed autologous DCs. The DCs were prepared every time by the same method as above. […]

peptide-pulsed C1R-A11 [1] = assay: In vitro CTL induction, IFN-gamma ELISPOT assay (HLA-A*1101); conditions: CTLs induced with peptide-pulsed DCs from HLA-A*1101-positive volunteers; day 21; vs peptide-pulsed C1R-A11, compared with unpulsed control
Method: C1R (C1R-A11) that stably expresses HLA-A*1101 was used as a stimulator cell. A cDNA encoding the open-reading frame of HLA-A*1101 was amplified by PCR and cloned into an expression vector. C1R cells were transfected with the expression vector, and then selected using G418 (Invitrogen) for two weeks. The G418-selected cells were seeded into wells containing G418-added culture medium in a 96-well plate, and further cultured for 30 days. The exogenous HLA-A*1101 expression in C1R cells was verified by flow cytometric analysis.
Monocyte-derived dendritic cells (DCs) were used as the antigen-presenting cell to induce a cytotoxic T lymphocyte (CTL) response against peptides presented on human leukocyte antigens (HLAs). As described in the other sections, DCs were generated in vitro (Nakahara S et al., Cancer Res 2003, 63(14): 4112-8). Specifically, peripheral-blood mononuclear cells isolated from healthy volunteers (HLA-A*1101-positive) with the Ficoll-Paque plus solution (Pharmacia) were separated by attaching to plastic tissue culture dishes (Becton Dickinson) and concentrated as a monocyte fraction. The monocyte-concentrated population was cultured in the presence of 1000 IU/ml granulocyte macrophage colony-stimulating factor (R&D System) and 1000 IU/ml interleukin(IL)-4 (R&D System) in an AIM-V medium (Invitrogen) containing 2% heat-inactivated autologous serum (AS). After seven days of culturing, the cytokine-induced DCs were pulsed with 20 micro-g/ml each of the synthesized peptides in an AIM-V medium at 37 degrees C. for three hours in the presence of 3 micro-g/ml beta 2-microglobulin. The generated cells appeared to express on their cell surface DC-associated molecules such as CD80, CD83, CD86 and HLA class II (data not shown). Next, these peptide-pulsed DCs were inactivated, by X-ray irradiation (20 Gy), and mixed in a 1:20 ratio with autologous CD8^+ T cells obtained by positive selection using the CD8 Positive Isolation Kit (Dynal). These culture products were seeded in a 48-well plate (Corning). Each well was made to contain 1.5×10^4 peptide-pulsed DCs, 3×10^5 CD8^+ T cells and 10 ng/ml IL-7 (R&D System) in 0.5 ml of the AIM-V/2% AS medium. Three days later, these culture products were added with a final concentration of 20 IU/ml IL-2 (CHIRON). On day 7 and day 14, T cells were further stimulated with peptide-pulsed autologous DCs. The DCs were prepared every time by the same method as above. On day 21, after the third peptide stimulation, CTLs were examined against the peptide-pulsed C1R-A11 by a human interferon (IFN)-gamma enzyme-linked immunospot (ELISPOT) assay (Tanaka H et al., Br J Cancer 2001, 84(1): 94-9; Umano Y et al., Br J Cancer 2001, 84(8): 1052-7; Uchida N et al., Clin Cancer Res 2004, 10(24): 8577-86; Suda T et al., Cancer Sci 2006, 97(5): 411-9; Watanabe T et al., Cancer Sci 2005, 96(8): 498-506).
(§1) Specifically, peptide-pulsed C1R-A11 (1×10^4 cells/well) was prepared as the stimulator cell. The induced CTLs, i.e., CTL lines and CTL clones, were used as the responder cell. The IFN-gamma ELISPOT assay and IFN-gamma ELISA were performed according to the manufacturer's manual.

peptide-pulsed C1R-A11 [2] = assay: IFN-gamma ELISA of CTL lines and CTL clones (HLA-A*1101)
Method: CTLs were propagated in culture using methods similar to those disclosed by Riddell et al. (Walter E A et al., N Engl J Med 1995, 333(16): 1038-44; Riddell S R et al., Nat Med 1996, 2(2): 216-23). The CTLs were co-cultured in a total of 25 ml AIM-V medium containing 5% AS (AIM-V/5% AS) and 40 ng/ml anti-CD3 antibody with two types of Mitomycin C-treated human B lymphoblastoid cell lines at 5×10^6 cells/flask. One day after beginning of the culturing, 120 IU/ml IL-2 was added to the culture. On days 5, 8 and 11, a fresh AIM-V/5% AS medium containing 30 IU/ml IL-2 was added to the culture (Tanaka H et al., Br J Cancer 2001, 84(1): 94-9; Umano Y et al., Br J Cancer 2001, 84(8): 1052-7; Uchida N et al., Clin Cancer Res 2004, 10(24): 8577-86; Suda T et al., Cancer Sci 2006, 97(5): 411-9; Watanabe T et al., Cancer Sci 2005, 96(8): 498-506).
Dilution of CTLs was carried out to make 0.3, 1 and 3 cells/well in 96 round-bottomed microtiter plates (Nalge Nunc International). The CTLs were co-cultured with two types of Mitomycin C-treated human B lymphoblastoid cell lines at 1×10^4 cells/well in a total of 150 micro-1/well AIM-V/5% AS medium with 30 ng/ml anti-CD3 antibody and 125 IU/ml IL-2. Ten days later, IL-2 was added to the medium at 50 micro-1/well to reach a final concentration of 125 IU/ml. On day 14, the CTL activity was tested, and the CTL clones were propagated using the same method as described above (Uchida N et al., Clin Cancer Res 2004, 10(24): 8577-86; Suda T et al., Cancer Sci 2006, 97(5): 411-9; Watanabe T et al., Cancer Sci 2005, 96(8): 498-506).
as §1

Sequence	peptide-specific CTL activity (IFN-gamma production), ELISPOT (peptide-pulsed C1R-A03)	peptide-specific CTL activity (IFN-gamma production), ELISPOT (peptide-pulsed C1R-A11 [1])	IFN-gamma production of CTL clones, ELISA (peptide-pulsed C1R-A11 [2]; CTL clones by limiting dilution, peptide-pulsed C1R-A11, listed as KOC1-A11-9-415)	IFN-gamma production of CTL lines, ELISA (peptide-pulsed C1R-A11 [2]; CTL lines, target cells pulsed with the peptide vs not pulsed, C1R-A11)
ALSVGAIIGK (a peptide derived from KOC1) [SEQ ID NO: 28]	no specific IFN-gamma production; also recorded: specific IFN-gamma production was not observed	potent IFN-gamma production	–	–
LSVGAIIGK (a peptide derived from KOC1) [SEQ ID NO: 5]	–	potent IFN-gamma production	Potent IFN-gamma production	potent IFN-gamma production
